Source: PMC7146753, “Self-Assembly, Nematic Phase Formation, and Organocatalytic Behavior of a Proline-Functionalized Lipopeptide” (ACS Applied Materials & Interfaces, 2020)
Where a SMILES comes first, the peptide text is derived from it. The star is where a group is joined. Palmitoyl = CCCCCCCCCCCCCCCC(=O)*; NHhexadecyl = CCCCCCCCCCCCCCCCN*

Legend:
[1] = tested on: human breast cancer (MCF-7) cells; conditions: 72 h
[2] = tested on: human dermal fibroblast (HDFa) cells; conditions: 72 h

Row | Compound | IC50 [1] | IC50 [2]
1 | CCCCCCCCCCCCCCCC(=O)N[C@H](C(=O)N[C@@H](CCCCN)C(=O)N1CCC[C@H]1C(=O)N[C@@H](CCC(=O)O)C(=O)N[C@@H](C)C(=O)N1CCC[C@H]1C(=O)O)[C@@H](C)CC [C16-IKPEAP] (Palmitoyl-IKPEAP-OH) | 630 µM | 390 µM
2 | CCCCCCCCCCCCCCCCNC(=O)[C@@H](NC(=O)[C@H](CCCCN)NC(=O)[C@@H]1CCCN1C(=O)[C@H](CCC(=O)O)NC(=O)[C@H](C)NC(=O)[C@@H]1CCCN1)[C@@H](C)CC [PAEPKI-C16] (H-PAEPKI-NHhexadecyl) | 230 µM | 100 µM
